Experimental data taken from US9540366B2, “Ring-fused heterocyclic compound” (Kyowa Hakko Kirin Co., Ltd., priority 2012, dated 2017).
Read-outs that look alike come from different tables or passages of the source.

Biological target: T1, human Cav3.2 T-type Ca2+ channel (Homo sapiens, UniProt O95180)
T1 construct: expressed in transfected cells; host or cells: KJMGER8 cells (Namalwa cell-derived cell line)
Test: Inhibitory effect for intracellular calcium response via Cav3.2 T-type Ca2+ channels (FLIPR Calcium 3 Assay Kit)
Format: cell-based

[1] = human Cav3.2-expressing KJMGER8 cells (Namalwa-derived), calcium response induced by 5 mmol/L CaCl2, 3 μmol/L mibefradil as reference, read-out: IC50 for the human Cav3.2 T-type Ca2+ current

T1 sequence (O95180 whole entry): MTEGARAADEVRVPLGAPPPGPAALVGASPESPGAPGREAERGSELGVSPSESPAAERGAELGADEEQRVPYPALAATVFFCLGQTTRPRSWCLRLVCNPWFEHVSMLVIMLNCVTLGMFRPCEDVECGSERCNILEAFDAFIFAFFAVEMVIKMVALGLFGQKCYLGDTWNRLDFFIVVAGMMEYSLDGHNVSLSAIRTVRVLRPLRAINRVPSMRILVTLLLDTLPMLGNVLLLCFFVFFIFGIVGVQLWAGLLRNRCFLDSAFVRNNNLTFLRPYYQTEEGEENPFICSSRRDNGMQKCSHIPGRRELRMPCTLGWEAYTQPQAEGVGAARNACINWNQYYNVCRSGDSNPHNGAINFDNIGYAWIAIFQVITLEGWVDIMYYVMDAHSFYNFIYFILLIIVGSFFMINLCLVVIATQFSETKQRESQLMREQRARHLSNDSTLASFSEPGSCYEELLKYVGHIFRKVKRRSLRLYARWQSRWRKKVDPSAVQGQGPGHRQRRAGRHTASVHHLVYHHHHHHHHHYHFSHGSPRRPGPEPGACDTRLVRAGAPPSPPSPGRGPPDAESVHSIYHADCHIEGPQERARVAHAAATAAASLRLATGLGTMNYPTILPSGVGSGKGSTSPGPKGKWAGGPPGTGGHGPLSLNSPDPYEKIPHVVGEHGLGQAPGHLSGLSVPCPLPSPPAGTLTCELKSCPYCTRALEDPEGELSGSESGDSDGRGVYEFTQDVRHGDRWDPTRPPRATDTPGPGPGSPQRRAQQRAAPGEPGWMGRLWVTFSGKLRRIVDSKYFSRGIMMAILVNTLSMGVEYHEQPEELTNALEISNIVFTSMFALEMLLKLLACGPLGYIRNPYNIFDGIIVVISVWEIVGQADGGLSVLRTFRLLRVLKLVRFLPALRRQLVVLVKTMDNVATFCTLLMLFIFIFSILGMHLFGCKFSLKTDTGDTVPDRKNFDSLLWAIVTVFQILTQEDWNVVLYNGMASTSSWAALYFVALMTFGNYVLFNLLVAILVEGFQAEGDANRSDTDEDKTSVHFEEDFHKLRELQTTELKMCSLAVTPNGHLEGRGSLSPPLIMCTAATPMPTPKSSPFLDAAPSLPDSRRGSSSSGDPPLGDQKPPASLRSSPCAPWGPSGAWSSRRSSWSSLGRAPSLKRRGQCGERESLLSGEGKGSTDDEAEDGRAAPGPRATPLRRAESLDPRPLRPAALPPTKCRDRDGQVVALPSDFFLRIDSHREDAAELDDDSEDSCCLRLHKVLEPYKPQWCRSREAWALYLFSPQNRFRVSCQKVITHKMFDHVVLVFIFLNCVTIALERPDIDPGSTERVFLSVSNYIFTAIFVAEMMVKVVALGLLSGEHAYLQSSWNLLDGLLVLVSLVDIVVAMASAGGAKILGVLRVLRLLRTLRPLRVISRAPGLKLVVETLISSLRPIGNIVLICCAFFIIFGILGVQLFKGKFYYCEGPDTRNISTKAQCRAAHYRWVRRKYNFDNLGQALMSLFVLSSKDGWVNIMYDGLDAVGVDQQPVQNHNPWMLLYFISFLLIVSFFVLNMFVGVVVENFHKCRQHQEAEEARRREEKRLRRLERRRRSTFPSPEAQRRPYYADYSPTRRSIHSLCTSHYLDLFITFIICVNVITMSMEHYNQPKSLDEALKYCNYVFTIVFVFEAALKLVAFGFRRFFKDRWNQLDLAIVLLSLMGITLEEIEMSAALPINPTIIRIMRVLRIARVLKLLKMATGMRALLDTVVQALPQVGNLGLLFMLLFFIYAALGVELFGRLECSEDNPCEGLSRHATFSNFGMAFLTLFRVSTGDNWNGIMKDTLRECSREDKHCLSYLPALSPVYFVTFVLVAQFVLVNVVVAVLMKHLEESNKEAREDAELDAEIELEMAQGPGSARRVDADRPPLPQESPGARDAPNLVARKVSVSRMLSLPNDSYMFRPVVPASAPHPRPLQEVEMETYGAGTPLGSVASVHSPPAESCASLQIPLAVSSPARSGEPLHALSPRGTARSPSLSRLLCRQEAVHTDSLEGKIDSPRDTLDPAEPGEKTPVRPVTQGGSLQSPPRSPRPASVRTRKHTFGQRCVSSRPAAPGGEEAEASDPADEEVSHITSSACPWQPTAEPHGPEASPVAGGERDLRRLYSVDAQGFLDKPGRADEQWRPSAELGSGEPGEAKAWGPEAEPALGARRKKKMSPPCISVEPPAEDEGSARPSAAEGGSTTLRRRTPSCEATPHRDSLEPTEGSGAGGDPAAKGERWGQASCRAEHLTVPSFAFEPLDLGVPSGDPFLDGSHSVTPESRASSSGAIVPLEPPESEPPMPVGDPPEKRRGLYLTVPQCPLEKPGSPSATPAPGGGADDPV

`Cc1cc(NC(=O)c2cc3nc(C(C)(C)Cl)c(S(=O)(=O)N4CC(F)(F)C4)n3cc2Cl)on1` [Compound 28, 6-Chloro-2-(2-chloropropan-2-yl)-3-(3,3-difluoroazetidin-1-ylsulfonyl)-N-(3-methylisoxazol-5-yl)imidazo[1,2-a]pyridine-7-carboxamide] was tested, and the IC50 [1] was ≤ 100 nM.
For `O=C(NCC1(O)CCOCC1)c1cc(Cl)n2c(CC3CCC(F)(F)CC3)c(C(F)(F)F)nc2c1` [Compound 86, 5-Chloro-3-[(4,4-difluorocyclohexyl)methyl]-N-[(4-hydroxytetrahydro-2H-pyran-4-yl)methyl]-2-(trifluoromethyl)imidazo[1,2-a]pyridine-7-carboxamide], the IC50 was ≤ 100 nM.
In the case of `N#Cc1cc(C(=O)NC2CCOC2)cc2nc(C(F)(F)F)c(CC3CCC(F)(F)CC3)n12` (stereo not shown) [Compound 62], the IC50 is reported as ≤ 100 nM.
With `Cc1cc(C(=O)C(O)C2CCOCC2)cc2nc(C(F)(F)F)c(CC3CCC(F)(F)CC3)n12` (stereo not shown) [Compound 83, 1-{3-[(4,4-Difluorocyclohexyl)methyl]-5-methyl-2-(trifluoromethyl)imidazo[1,2-a]pyridin-7-yl}-2-hydroxy-2-(tetrahydro-2H-pyran-4-yl)ethanone] the IC50 [1] was ≤ 100 nM.
For `CC(C)(C)NC(=O)c1cc2nc(C(F)(F)F)c(CC3CCC(F)(F)CC3)n2c(Cl)c1Cl` [Compound 227, N-tert-Butyl-5,6-dichloro-3-[(4,4-difluorocyclohexyl)methyl]-2-(trifluoromethyl)imidazo[1,2-a]pyridine-7-carboxamide], the IC50 was ≤ 100 nM.
With `Cc1cc(C(=O)NC2CC(F)(F)C2)cc2nc(C(C)(C)O)c(CC3CCC(F)(F)CC3)n12` [Compound 10, N-(3,3-Difluorocyclobutyl)-3-[(4,4-difluorocyclohexyl)methyl]-2-(2-hydroxypropan-2-yl)-5-methylimidazo[1,2-a]pyridine-7-carboxamide] the IC50 was ≤ 100 nM.
With `O=C(NCCN1CCCCC1)c1cc(Cl)n2c(CC3CCC(F)(F)CC3)c(C(F)(F)F)nc2c1` [Compound 99, 5-Chloro-3-[(4,4-difluorocyclohexyl)methyl]-N-[2-(piperidin-1-yl)ethyl]-2-(trifluoromethyl)imidazo[1,2-a]pyridine-7-carboxamide] the IC50 was ≤ 100 nM.
`N#Cc1cc(C(=O)Nc2ccccc2N)cc2nc(C(F)(F)F)c(CC3CCC(F)(F)CC3)n12` [Compound 52, N-(2-Aminophenyl)-5-cyano-3-[(4,4-difluorocyclohexyl)methyl]-2-(trifluoromethyl)imidazo[1,2-a]pyridine-7-carboxamide] was tested, and the IC50 was ≤ 100 nM.
For `Cc1cc(C(O)C(O)c2ccccc2)cc2nc(C(F)(F)F)c(CC3CCC(F)(F)CC3)n12` (stereo not shown) [Compound 94, 1-{3-[(4,4-Difluorocyclohexyl)methyl]-5-methyl-2-(trifluoromethyl)imidazo[1,2-a]pyridin-7-yl}-2-phenylethane-1,2-diol], the IC50 was ≤ 100 nM.
In the case of `CC(C)c1nc2cc(C(=O)NC3CC(F)(F)C3)cc(C#N)n2c1CC1CCC(F)(F)CC1` [Compound 170, 5-Cyano-N-(3,3-difluorocyclobutyl)-3-[(4,4-difluorocyclohexyl)methyl]-2-isopropylimidazo[1,2-a]pyridine-7-carboxamide], the IC50 is reported as ≤ 100 nM.
`CC(C)c1nc2cc(C(=O)NCC(C)(F)F)cc(C#N)n2c1CC1CCC(F)(F)CC1` [Compound 177, 5-Cyano-3-[(4,4-difluorocyclohexyl)methyl]-N-(2,2-difluoropropyl)-2-isopropylimidazo[1,2-a]pyridine-7-carboxamide] was tested, and the IC50 was ≤ 100 nM.
`N#Cc1cc(C(=O)NC2CCOC2=O)cc2nc(C(F)(F)F)c(CC3CCC(F)(F)CC3)n12` (stereo not shown) [Compound 140, 5-Cyano-3-[(4,4-difluorocyclohexyl)methyl]-N-(2-oxotetrahydrofuran-3-yl)-2-(trifluoromethyl)imidazo[1,2-a]pyridine-7-carboxamide] was tested, and the IC50 was ≤ 100 nM.
With `N#Cc1cc(C(=O)NC2CC3(COC3)C2)cc2nc(C(F)(F)F)c(CC3CCC(F)(F)CC3)n12` [Compound 146, 5-Cyano-3-[(4,4-difluorocyclohexyl)methyl]-N-(2-oxaspiro[3.3]heptan-6-yl)-2-(trifluoromethyl)imidazo[1,2-a]pyridine-7-carboxamide] the IC50 [1] was ≤ 100 nM.
For `CC1(CNC(=O)c2cc(C#N)n3c(CC4CCC(F)(F)CC4)c(C(F)(F)F)nc3c2)CCCO1` (stereo not shown) [Compound 2, 5-Cyano-3-[(4,4-difluorocyclohexyl)methyl]-N-[(2-methyltetrahydrofuran-2-yl)methyl]-2-(trifluoromethyl)imidazo[1,2-a]pyridine-7-carboxamide], the IC50 was ≤ 100 nM.
For `O=C(NCC1(CO)CC1)c1cc(Cl)n2c(CC3CCC(F)(F)CC3)c(C(F)(F)F)nc2c1` [Compound 174, 5-Chloro-3-[(4,4-difluorocyclohexyl)methyl]-N-{[1-(hydroxymethyl)cyclopropyl]methyl}-2-(trifluoromethyl)imidazo[1,2-a]pyridine-7-carboxamide], the IC50 was ≤ 100 nM.
For `O=C(NNC(=O)C1CC1)c1cc(Cl)n2c(CC3CCC(F)(F)CC3)c(C(F)(F)F)nc2c1` [Compound 142, 5-Chloro-N′-(cyclopropanecarbonyl)-3-[(4,4-difluorocyclohexyl)methyl]-2-(trifluoromethyl)imidazo[1,2-a]pyridine-7-carbohydrazide], the IC50 was ≤ 100 nM.
`CC(F)(F)c1nc2cc(C(=O)NC3CCC(O)CC3)c(Cl)cn2c1CC1CCC(F)(F)CC1` (stereo not shown) [Compound 25, 6-Chloro-3-[(4,4-difluorocyclohexyl)methyl]-2-(1,1-difluoroethyl)-N-(4-hydroxycyclohexyl)imidazo[1,2-a]pyridine-7-carboxamide] was tested, and the IC50 was ≤ 100 nM.
For `Cc1cc(C(O)C(O)C2CCOCC2)cc2nc(C(F)(F)F)c(CC3CCC(F)(F)CC3)n12` (stereo not shown) [Compound 82, 1-{3-[(4,4-Difluorocyclohexyl)methyl]-5-methyl-2-(trifluoromethyl)imidazo[1,2-a]pyridin-7-yl}-2-(tetrahydro-2H-pyran-4-yl)ethane-1,2-diol], the IC50 was ≤ 100 nM.
For `Cc1cc(C(=O)NC2CCOCC2)cc2nc(C(F)(F)F)c(Cc3ccccc3)n12` [Compound 206, 3-Benzyl-5-methyl-N-(tetrahydro-2H-pyran-4-yl)-2-(trifluoromethyl)imidazo[1,2-a]pyridine-7-carboxamide], the IC50 was ≤ 100 nM.
`N#Cc1cc(C(=O)NCC2COCCO2)cc2nc(C(F)(F)F)c(CC3CCC(F)(F)CC3)n12` (stereo not shown) [Compound 59, N-[(1,4-Dioxan-2-yl)methyl]-5-cyano-3-[(4,4-difluorocyclohexyl)methyl]-2-(trifluoromethyl)imidazo[1,2-a]pyridine-7-carboxamide] was tested, and the IC50 [1] was ≤ 100 nM.
With `Cc1cc(C(=O)N[C@H]2C[C@@H]3CC[C@H]2O3)cc2nc(C(C)(F)F)c(Cc3ccc(Cl)cc3)n12` [Compound 215, N-[(1R,2S,4S)-7-Oxabicyclo[2.2.1]heptan-2-yl]-3-(4-chlorobenzyl)-2-(1,1-difluoroethyl)-5-methylimidazo[1,2-a]pyridine-7-carboxamide] the IC50 [1] was ≤ 100 nM.
With `CC(C)(O)CNC(=O)c1cc2nc(C(C)(F)F)c(CC3CCC(F)(F)CC3)n2cc1Cl` [Compound 26, 6-Chloro-3-[(4,4-difluorocyclohexyl)methyl]-2-(1,1-difluoroethyl)-N-(2-hydroxy-2-methylpropyl)imidazo[1,2-a]pyridine-7-carboxamide] the IC50 was ≤ 100 nM.
For `Cc1cc(Cc2nc3ccccc3[nH]2)cc2nc(C(F)(F)F)c(CC3CCC(F)(F)CC3)n12` [Compound 87, 2-({3-[(4,4-Difluorocyclohexyl)methyl]-5-methyl-2-(trifluoromethyl)imidazo[1,2-a]pyridin-7-yl}methyl)-1H-benzo[d]imidazol], the IC50 [1] was ≤ 100 nM.
`Cc1c(C(=O)NC2CCOCC2)cc2nc(C(F)(F)F)c(CC3CCC(F)(F)CC3)n2c1Cl` [Compound 195, 5-Chloro-3-[(4,4-difluorocyclohexyl)methyl]-6-methyl-N-(tetrahydro-2H-pyran-4-yl)-2-(trifluoromethyl)imidazo[1,2-a]pyridine-7-carboxamide] was tested, and the IC50 was ≤ 100 nM.
With `COC1(CNC(=O)c2cc(C#N)n3c(CC4CCC(F)(F)CC4)c(C(F)(F)F)nc3c2)CCOCC1` [Compound 141, 5-Cyano-3-[(4,4-difluorocyclohexyl)methyl]-N-[(4-methoxytetrahydro-2H-pyran-4-yl)methyl]-2-(trifluoromethyl)imidazo[1,2-a]pyridine-7-carboxamide] the IC50 was ≤ 100 nM.
For `CC(C)(CO)NC(=O)c1cc(C#N)n2c(CC3CCC(F)(F)CC3)c(C(F)(F)F)nc2c1` [Compound 162], the IC50 was ≤ 100 nM.
`Cc1cc(C(=O)Nc2ccccc2)cc2nc(C(C)O)c(CC3CCC(F)(F)CC3)n12` (stereo not shown) [Compound 20, 3-[(4,4-Difluorocyclohexyl)methyl]-2-(1-hydroxyethyl)-5-methyl-N-phenylimidazo[1,2-a]pyridine-7-carboxamide] was tested, and the IC50 [1] was ≤ 100 nM.
For `CC(F)(F)c1nc2cc(C(=O)NCC3CCOC3)c(Cl)cn2c1CC1CCC(F)(F)CC1` (stereo not shown) [Compound 24, 6-Chloro-3-[(4,4-difluorocyclohexyl)methyl]-2-(1,1-difluoroethyl)-N-[(tetrahydrofuran-3-yl)methyl]imidazo[1,2-a]pyridine-7-carboxamide], the IC50 was ≤ 100 nM.
With `CC(F)(F)c1nc2cc(C(=O)Nc3ccccc3)c(Cl)cn2c1CC1CCC(F)(F)CC1` [Compound 5, 6-Chloro-3-[(4,4-difluorocyclohexyl)methyl]-2-(1,1-difluoroethyl)-N-phenylimidazo[1,2-a]pyridine-7-carboxamide] the IC50 was ≤ 100 nM.
With `N#Cc1cc(C(=O)NC2CCC3(CC2)COC3)cc2nc(C(F)(F)F)c(CC3CCC(F)(F)CC3)n12` [Compound 70, 5-Cyano-3-[(4,4-difluorocyclohexyl)methyl]-N-(2-oxaspiro[3.5]nonan-7-yl)-2-(trifluoromethyl)imidazo[1,2-a]pyridine-7-carboxamide] the IC50 [1] was ≤ 100 nM.
For `N#Cc1cc(C(=O)NC2(CO)CCOCC2)cc2nc(C(F)(F)F)c(CC3CCC(F)(F)CC3)n12` [Compound 58, 5-Cyano-3-[(4,4-difluorocyclohexyl)methyl]-N-[4-(hydroxymethyl)tetrahydro-2H-pyran-4-yl]-2-(trifluoromethyl)imidazo[1,2-a]pyridine-7-carboxamide], the IC50 was ≤ 100 nM.
